The values that follow are results of earlier work, collected in patent US11654095B2, “Method for dyeing keratinous material, comprising the use of an organosilicon compound, a chromophoric compound, a modified fatty acid ester and a sealing reagent II” (Henkel AG & Co. KGaA, priority 2019, dated 2023).

Where two headings read alike, the source gives them in different places.

Take `O=C([O-])C1=NN(c2ccc(S(=O)(=O)[O-])cc2)C(=O)C1N=Nc1ccc(S(=O)(=O)[O-])cc1.[Na+].[Na+].[Na+]` (stereo not shown) [Acid Yellow 23, trisodium salt of 4,5-dihydro-5-oxo-1-(4-sulfophenyl)-4-((4-sulfophenyl)azo)-1H-pyrazole-3-carboxylic acid]: where the note is “water at 25° C.”, the “solubility in water” value was “highly soluble”.

As to `O=S(=O)([O-])c1ccc(N=Nc2c(O)ccc3ccccc23)cc1.[Na+]` [Acid Orange 7, sodium salt of 4-[(2-hydroxy-1-naphthyl)azo]benzene sulphonate], where the note is “25° C.”, the solubility in water entry is recorded as “more than 7 g/L”.

Turning to `Nc1cc(S(=O)(=O)[O-])cc2cc(S(=O)(=O)[O-])c(N=Nc3ccccc3)c(O)c12.[Na+].[Na+]` [Acid Red 33, disodium salt of 5-amino-4-hydroxy-3-(phenylazo)-naphthalene-2,7-disulphonate], where the note is “25° C.”, the solubility in water was 2500 µg/mL.

Regarding `O=C([O-])c1c(Cl)c(Cl)c(Cl)c(Cl)c1-c1c2c(Br)cc(=O)c(Br)c-2oc2c(Br)c(O)cc(Br)c12.O=C([O-])c1c(Cl)c(Cl)c(Cl)c(Cl)c1-c1c2c(Br)cc(=O)c(Br)c-2oc2c(Br)c(O)cc(Br)c12.[Na+].[Na+]` [Acid Red 92, disodium salt of 3,4,5,6-tetrachloro-2-(1,4,5,8-tetrabromo-6-hydroxy-3-oxoxanthen-9-yl)benzoic acid], the solubility in water result (25° C.) is reported as “greater than 10 g/L”.
